Data taken from US20240246968A1, “SMALL MOLECULE INHIBITORS OF KRAS G12C MUTANT” (Merck Sharp & Dohme LLC, priority 2021, published 2024).

Legend:
MIA PaCa-2 cells = test: Growth inhibition activity on KRAS-G12C mutant cell line (MIA PaCa-2), CellTiter-Glo 3D; type: cell-based, human; details: MIA PaCa-2, 3-day culture with compound
Procedure, shortened: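 Cells in RPMI1640 with 10% FBS were seeded in U-bottom plates and cultured 1 day at 37 °C, 5% CO2, then exposed to compound (0.2% DMSO final) for 3 more days. Viability read by CellTiter-Glo 3D luminescence; IC50 from growth inhibition relative to untreated wells.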

[1] = molecular target: Gppcp-bound recombinant K-Ras4B G12C mutant protein (amino acids 1-169, C51S/C80L/C118S) (Homo sapiens, UniProt P01116, C118S/C51S/C80L/G12C); test: KRASG12C binding assay (LC-MS, compound binding rate); details: test compound final concentration 0.5 μM, 25° C., 1 hour
Procedure, shortened: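 Gppcp-bound K-Ras4B G12C (1-169; C51S/C80L/C118S), 50 nM in TBS with 0.1 mM TCEP, 0.25 mM MgCl2, 50 μM Gppcp, exposed to compound at 0.5 μM final for 1 h at 25 °C. Quenched with formic acid and analysed by intact-protein ESI LC-MS. Binding rate is the mono-adduct signal over total KRAS signal; graded A (≥80%) to E (<20%).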

[2] = molecular target: T1, interaction between recombinant K-Ras4B G12C mutant protein and cRAF RAS-binding domain (cRAF-RBD) (Homo sapiens, UniProt P01116, G12C); test: Inhibitory activity on interaction between KRAS G12C and cRAF (Alpha technology); type: biochemical; details: GMPPNP-bound KRAS G12C incubated with compound at 25° C. for 1 hour, then cRAF-RBD; Alpha signal
T1 construct: made in house; host or cells: E. coli
Procedure, shortened: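 GMPPNP-loaded His-tagged KRAS G12C (aa 1-169, E. coli) preincubated with compound 1 h at 25° C in Tris pH 7.5, 100 mM NaCl, 1 mM MgCl2, TCEP, 0.1% Tween 20; cRAF-RBD (aa 50-132) added, 1.5 h RT, Alpha signal read. DMSO = 0%, GDP-bound KRAS = 100% inhibition; IC50 from dose titration fit.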

IC50 (MIA PaCa-2 cells) [nM]	IC50 [2] [nM]	IC50 (MIA PaCa-2 cells; Homo sapiens, MIA PaCa-2, 72 h) [nM]	Structure (SMILES)	binding rate [1]
35	29		COc1cc2c(nc(C)n2C)c(Cl)c1-c1cccn2c(C(=O)c3cc(F)c(NC(=O)/C=C/CN[C@H]4CC[C@H](OC)CC4)c(F)c3)ccc12 (single isomer, unassigned) [Example 35-1, (E)-N-(4-(8-(4-chloro-6-methoxy-1,2-dimethyl-1H-benzo[d]imidazol-5-yl)indolizine-3-carbonyl)-2,6-difluorophenyl)-4-(((1r,4r)-4-methoxycyclohexyl)amino)but-2-enamide]	A (A binding rate of 80% or more is rated “A”)
73	53		COc1cc2c(nc(C)n2C)c(Cl)c1-c1cccn2c(C(=O)c3cc(F)c(NC(=O)/C=C/CN[C@H]4CC[C@H](OC)CC4)c(F)c3)ccc12 (single isomer, unassigned) [Example 35-2, (E)-N-(4-(8-(4-chloro-6-methoxy-1,2-dimethyl-1H-benzo[d]imidazol-5-yl)indolizine-3-carbonyl)-2,6-difluorophenyl)-4-(((1r,4r)-4-methoxycyclohexyl)amino)but-2-enamide]	A (A binding rate of 80% or more is rated “A”)
24	40		COc1cc2c(nc(C)n2C)c(Cl)c1-c1cccn2c(C(=O)c3cc(F)c(NC(=O)/C=C/CNC(C)(C)C)c(F)c3)ccc12 (single isomer, unassigned) [Example 36-1, (E)-4-(tert-butylamino)-N-(4-(8-(4-chloro-6-methoxy-1,2-dimethyl-1H-benzo[d]imidazol-5-yl)indolizine-3-carbonyl)-2,6-difluorophenyl)but-2-enamide]	B (a binding rate of 60% or more and less than 80% is rated “B”)
60	56		COc1cc2c(nc(C)n2C)c(Cl)c1-c1cccn2c(C(=O)c3cc(F)c(NC(=O)/C=C/CNC(C)(C)C)c(F)c3)ccc12 (single isomer, unassigned) [Example 36-2, (E)-4-(tert-butylamino)-N-(4-(8-(4-chloro-6-methoxy-1,2-dimethyl-1H-benzo[d]imidazol-5-yl)indolizine-3-carbonyl)-2,6-difluorophenyl)but-2-enamide]	A (A binding rate of 80% or more is rated “A”)
350	580		COc1c(-c2cccn3c(C(=O)c4cc(F)c(NC(=O)/C=C/CN[C@H]5CC[C@H](OC)CC5)c(F)c4)ccc23)c(C)cc2c1nc(C)n2C (single isomer, unassigned) [Example 39-1, (E)-N-(2,6-difluoro-4-(8-(4-methoxy-1,2,6-trimethyl-1H-benzo[d]imidazol-5-yl)indolizine-3-carbonyl)phenyl)-4-(((1r,4r)-4-methoxycyclohexyl)amino)but-2-enamide]	A (A binding rate of 80% or more is rated “A”)
44	32		COc1c(-c2cccn3c(C(=O)c4cc(F)c(NC(=O)/C=C/CN[C@H]5CC[C@H](OC)CC5)c(F)c4)ccc23)c(C)cc2c1nc(C)n2C (single isomer, unassigned) [Example 39-2, (E)-N-(2,6-difluoro-4-(8-(4-methoxy-1,2,6-trimethyl-1H-benzo[d]imidazol-5-yl)indolizine-3-carbonyl)phenyl)-4-(((1r,4r)-4-methoxycyclohexyl)amino)but-2-enamide]	A (A binding rate of 80% or more is rated “A”)
340	340		COc1c(-c2cccn3c(C(=O)c4cc(F)c(NC(=O)/C=C/CNC(C)(C)C)c(F)c4)ccc23)c(C)cc2c1nc(C)n2C (single isomer, unassigned) [Example 40-1]	A (A binding rate of 80% or more is rated “A”)
73	21		COc1c(-c2cccn3c(C(=O)c4cc(F)c(NC(=O)/C=C/CNC(C)(C)C)c(F)c4)ccc23)c(C)cc2c1nc(C)n2C (single isomer, unassigned) [Example 40-2]	A (A binding rate of 80% or more is rated “A”)
	52	32	COc1cc2c(ncn2C)c(Cl)c1-c1cccn2c(C(=O)c3cc(F)c(NC(=O)/C=C/CN[C@H]4CC[C@H](OC)CC4)c(F)c3)ccc12 (single isomer, unassigned) [Example 41-1, (E)-N-(4-(8-(4-chloro-6-methoxy-1-methyl-1H-benzo[d]imidazol-5-yl)indolizine-3-carbonyl)-2,6-difluorophenyl)-4-(((1r,4r)-4-methoxycyclohexyl)amino)but-2-enamide]	A (A binding rate of 80% or more is rated “A”)
50	74		COc1cc2c(ncn2C)c(Cl)c1-c1cccn2c(C(=O)c3cc(F)c(NC(=O)/C=C/CN[C@H]4CC[C@H](OC)CC4)c(F)c3)ccc12 (single isomer, unassigned) [Example 41-2, (E)-N-(4-(8-(4-chloro-6-methoxy-1-methyl-1H-benzo[d]imidazol-5-yl)indolizine-3-carbonyl)-2,6-difluorophenyl)-4-(((1r,4r)-4-methoxycyclohexyl)amino)but-2-enamide]	A (A binding rate of 80% or more is rated “A”)
75	16		CO[C@H](C)c1nc2c(Cl)c(-c3cccn4c(C(=O)c5cc(F)c(NC(=O)/C=C/CN[C@H]6CC[C@H](OC)CC6)c(F)c5)ccc34)c(C)cc2n1C (single isomer, unassigned) [Example 47]	A (A binding rate of 80% or more is rated “A”)
230	110		CO[C@H](C)c1nc2c(Cl)c(-c3cccn4c(C(=O)c5cc(F)c(NC(=O)/C=C/CN[C@H]6CC[C@H](OC)CC6)c(F)c5)ccc34)c(C)cc2n1C (single isomer, unassigned) [Example 48]	A (A binding rate of 80% or more is rated “A”)
49	19		CO[C@H](C)c1nc2c(Cl)c(-c3cccn4c(C(=O)c5cc(F)c(NC(=O)/C=C/CNC(C)(C)C)c(F)c5)ccc34)c(C)cc2n1C (single isomer, unassigned) [Example 49]	A (A binding rate of 80% or more is rated “A”)
220	250		CO[C@H](C)c1nc2c(Cl)c(-c3cccn4c(C(=O)c5cc(F)c(NC(=O)/C=C/CNC(C)(C)C)c(F)c5)ccc34)c(C)cc2n1C (single isomer, unassigned) [Example 50]	A (A binding rate of 80% or more is rated “A”)
1100	450		Cc1nc2c(Cl)c(-c3cccn4c(C(=O)c5cc(F)c(NC(=O)/C=C/CNC(C)(C)C)c(F)c5)ccc34)c(C(F)(F)F)cc2n1C (single isomer, unassigned) [Example 56-1, (E)-4-(tert-butylamino)-N-(4-(8-(4-chloro-1,2-dimethyl-6-(trifluoromethyl)-1H-benzo[d]imidazol-5-yl)indolizine-3-carbonyl)-2,6-difluorophenyl)but-2-enamide]	A (A binding rate of 80% or more is rated “A”)
29	21		Cc1nc2c(Cl)c(-c3cccn4c(C(=O)c5cc(F)c(NC(=O)/C=C/CNC(C)(C)C)c(F)c5)ccc34)c(C(F)(F)F)cc2n1C (single isomer, unassigned) [Example 56-2, (E)-4-(tert-butylamino)-N-(4-(8-(4-chloro-1,2-dimethyl-6-(trifluoromethyl)-1H-benzo[d]imidazol-5-yl)indolizine-3-carbonyl)-2,6-difluorophenyl)but-2-enamide]	A (A binding rate of 80% or more is rated “A”)
20	43		Cc1nc2c(Cl)c(-c3cccn4c(C(=O)c5cc(F)c(NC(=O)/C=C/CNC6CCOCC6)c(F)c5)ccc34)c(C(F)(F)F)cc2n1C (single isomer, unassigned) [Example 57-1, (E)-N-(4-(8-(4-chloro-1,2-dimethyl-6-(trifluoromethyl)-1H-benzo[d]imidazol-5-yl)indolizine-3-carbonyl)-2,6-difluorophenyl)-4-((tetrahydro-2H-pyran-4-yl)amino)but-2-enamide]	A (A binding rate of 80% or more is rated “A”)
1100	790		Cc1nc2c(Cl)c(-c3cccn4c(C(=O)c5cc(F)c(NC(=O)/C=C/CNC6CCOCC6)c(F)c5)ccc34)c(C(F)(F)F)cc2n1C (single isomer, unassigned) [Example 57-2, (E)-N-(4-(8-(4-chloro-1,2-dimethyl-6-(trifluoromethyl)-1H-benzo[d]imidazol-5-yl)indolizine-3-carbonyl)-2,6-difluorophenyl)-4-((tetrahydro-2H-pyran-4-yl)amino)but-2-enamide]	A (A binding rate of 80% or more is rated “A”)
